According to patent publication EP0749423B1, “PIPERIDINES AND PYRROLIDINES” (NOVO NORDISK A/S, priority 1994, dated 1995):
Read-outs that look alike come from different tables or passages of the source.

Key:
cultured liver cells = assay: Glucose production from cultured rat hepatocytes (basal and glucagon stimulated glycogenolysis); assay type: cell-based; details: Hepatocyte; for activity at 50 µM / activity at 32 µM: 70 min, glucose in medium after 70 minutes; for activity at 50 µM: test compound 50µM; for activity at 32 µM: test compound 32µM
Description: During the last 24 hours, the hepatocytes were cultured in the presence of high levels of insulin (5 nM) and glucose (15 mM), which result in the incorporation of glucose into glycogen. Therefore, at the time of the experiment, the cells mimic livers from fed animals. Experiments were initiated after 72 hours of culture by 2 times wash of cells and addition of a 20 mM HEPES experimental buffer including balanced salts, but without glucose. The test compound was added simultaneously with the experimental buffer. To some cultures, glucagon (0.5 nM) was added after 10 minutes in order to stimulate glucose production from liver cells. The glucose released into the media, reflecting the glucose production of the liver cells, was measured 70 minutes after the start of the experiment and standardized to cellular DNA content.

liver α-1,6-glucosidase = molecular target: T1, liver α-1,6-glucosidase (Homo sapiens, UniProt P35573); assay: Glycogen debranching enzyme activity (Brown and Brown method); assay type: biochemical; details: read-out: I.C.50 liver α-1,6-glucosidase
T1 construct: from tissue
T1 sequence (P35573 whole entry): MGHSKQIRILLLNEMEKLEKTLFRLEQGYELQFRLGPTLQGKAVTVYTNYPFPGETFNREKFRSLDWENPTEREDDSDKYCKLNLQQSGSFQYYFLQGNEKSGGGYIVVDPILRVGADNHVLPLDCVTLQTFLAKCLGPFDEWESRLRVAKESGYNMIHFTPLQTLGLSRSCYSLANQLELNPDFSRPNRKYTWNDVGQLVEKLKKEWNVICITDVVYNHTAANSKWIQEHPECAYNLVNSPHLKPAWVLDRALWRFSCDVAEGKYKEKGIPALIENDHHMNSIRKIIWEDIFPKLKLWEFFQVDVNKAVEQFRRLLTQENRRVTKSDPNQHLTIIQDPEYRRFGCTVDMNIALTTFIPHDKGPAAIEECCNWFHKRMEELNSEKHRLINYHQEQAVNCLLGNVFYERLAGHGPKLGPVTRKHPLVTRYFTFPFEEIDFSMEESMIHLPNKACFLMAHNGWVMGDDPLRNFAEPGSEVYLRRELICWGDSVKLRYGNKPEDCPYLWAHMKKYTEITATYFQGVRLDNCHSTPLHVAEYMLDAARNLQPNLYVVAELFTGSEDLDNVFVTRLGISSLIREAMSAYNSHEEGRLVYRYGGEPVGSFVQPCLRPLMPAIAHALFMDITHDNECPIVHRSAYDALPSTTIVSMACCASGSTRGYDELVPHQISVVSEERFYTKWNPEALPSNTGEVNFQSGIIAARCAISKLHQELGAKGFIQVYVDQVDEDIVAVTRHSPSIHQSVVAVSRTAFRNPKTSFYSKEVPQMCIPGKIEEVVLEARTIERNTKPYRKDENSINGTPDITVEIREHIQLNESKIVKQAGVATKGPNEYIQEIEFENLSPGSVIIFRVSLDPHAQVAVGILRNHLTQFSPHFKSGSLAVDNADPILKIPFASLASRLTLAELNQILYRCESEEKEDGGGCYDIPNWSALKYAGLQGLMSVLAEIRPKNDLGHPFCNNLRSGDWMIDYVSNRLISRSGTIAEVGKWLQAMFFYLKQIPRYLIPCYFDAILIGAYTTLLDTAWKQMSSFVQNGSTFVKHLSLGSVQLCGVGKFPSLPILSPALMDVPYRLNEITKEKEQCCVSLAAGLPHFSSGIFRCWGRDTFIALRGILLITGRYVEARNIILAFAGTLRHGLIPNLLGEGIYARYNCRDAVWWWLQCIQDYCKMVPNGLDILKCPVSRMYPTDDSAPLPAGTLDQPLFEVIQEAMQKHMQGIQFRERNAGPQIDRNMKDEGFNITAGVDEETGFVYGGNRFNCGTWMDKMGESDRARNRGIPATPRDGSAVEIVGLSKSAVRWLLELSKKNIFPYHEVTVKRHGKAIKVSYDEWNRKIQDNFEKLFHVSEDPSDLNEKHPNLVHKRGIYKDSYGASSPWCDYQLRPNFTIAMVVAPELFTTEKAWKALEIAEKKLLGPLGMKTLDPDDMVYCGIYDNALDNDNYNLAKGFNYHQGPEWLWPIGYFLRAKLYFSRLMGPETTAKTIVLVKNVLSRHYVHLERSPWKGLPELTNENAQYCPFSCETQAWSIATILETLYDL

Phosphorylase = details: read-out: I.C.50 Phosphorylase; phosphorylase purchased from Sigma or extracted from rat livers
[1] = relative to basal glucose production (no addition with glucagon = 283%), read-out: Glucose production With glucagon (0.5nM)
[2] = basal, without glucagon, read-out: I.C.50 Liver cell glucose production: Basal
[3] = read-out: I.C.50 Liver cell glucose production: Glucagon stimulated

SMILES	activity at 50 µM (cultured liver cells; relative to basal glucose production (no addition = 100 %), read-out: Glucose production Without glucagon)	activity at 50 µM (cultured liver cells; [1])	IC50 (cultured liver cells; [2])	IC50 (cultured liver cells; [3])	IC50 (liver α-1,6-glucosidase)	IC50 (Phosphorylase)	activity at 32 µM (cultured liver cells; relative to basal glucose production (no addition = 100 %), standardized to DNA, read-out: Glucose production Without glucagon)	activity at 32 µM (cultured liver cells; [1])
OC[C@H]1NC[C@H](O)[C@@H](O)[C@@H]1O [1-deoxynojirimycin]	89%	237%	> 100 µM	> 100 µM	2.4 µM	> 200 µM	–	–
OC[C@H]1CNC[C@@H](O)[C@@H]1O [Example 1, (3R,4R,5R)-3,4-dihydroxy-5-hydroxymethylpiperidine]	–	–	1.3 µM	1.6 µM	77 µM	–	17%	32%
